Test results from US11365199B2, “Pyrazole compounds as modulators of FSHR and uses thereof” (Merck Patent GmbH, priority 2013, dated 2022).

Target: T1, FSHR (Homo sapiens, UniProt P23945)
T1 construct: expressed in transfected cells; host or cells: CHO (Cho-FSHR-LUC-1-1-43)
T1 sequence (P23945 18-695): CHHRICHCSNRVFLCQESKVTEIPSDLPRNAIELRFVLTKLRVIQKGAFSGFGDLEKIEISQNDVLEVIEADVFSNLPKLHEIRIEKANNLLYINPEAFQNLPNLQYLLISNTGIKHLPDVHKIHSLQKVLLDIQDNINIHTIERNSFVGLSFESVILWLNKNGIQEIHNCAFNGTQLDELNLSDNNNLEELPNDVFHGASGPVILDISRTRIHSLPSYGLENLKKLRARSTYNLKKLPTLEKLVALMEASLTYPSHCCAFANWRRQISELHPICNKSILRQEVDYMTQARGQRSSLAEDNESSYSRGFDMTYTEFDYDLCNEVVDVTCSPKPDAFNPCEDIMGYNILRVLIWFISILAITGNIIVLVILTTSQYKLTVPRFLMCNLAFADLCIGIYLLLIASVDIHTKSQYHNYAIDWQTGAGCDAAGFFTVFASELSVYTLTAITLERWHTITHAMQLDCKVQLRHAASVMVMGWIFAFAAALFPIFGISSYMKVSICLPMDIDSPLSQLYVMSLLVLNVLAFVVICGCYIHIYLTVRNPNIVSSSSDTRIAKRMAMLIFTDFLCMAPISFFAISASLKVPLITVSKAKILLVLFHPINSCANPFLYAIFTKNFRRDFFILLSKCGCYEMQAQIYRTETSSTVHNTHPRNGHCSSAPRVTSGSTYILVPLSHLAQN
Experiment: EC50 of cyclic AMP production in CHO FSHR cells + EC20 FSH (Assay A)
Type: cell-based
Settings: CHO FSHR cells + EC20 FSH, cAMP HTRF; read-out: Assay A: EC50 of cyclic AMP production
Method in brief: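 Cho-FSHR-LUC cells were exposed to compound dilution series with EC20 FSH ([…]) and 200 μM IBMX for 1 h at 37° C. cAMP was read by HTRF (665/620 nm ratio). Effects are percent of the maximal FSH standard response.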

Compound	EC50 [nM]
COc1cc2c(cc1-c1ccn(C)c1)-c1c(c(C(=O)NCC3(O)COC3)nn1-c1ccsc1)CO2 [Compound 164, 7-Methoxy-8-(1-methyl-1H-pyrrol-3-yl)-1-thiophen-3-yl-1,4-dihydro-chromeno[4,3-c]pyrazole-3-carboxylic acid (3-hydroxy-oxetan-3-ylmethyl)-amide]	1000 to 5000
COc1cc2c(cc1-c1ccn(C)n1)-c1c(c(C(=O)NCC3(O)COC3)nn1-c1ccsc1)CO2 [Compound 165, 7-Methoxy-8-(1-methyl-1H-pyrazol-3-yl)-1-thiophen-3-yl-1,4-dihydro-chromeno[4,3-c]pyrazole-3-carboxylic acid (3-hydroxy-oxetan-3-ylmethyl)-amide]	> 5000
COc1cc2c(cc1CN)-c1c(c(C(=O)N3CCOCC3(C)C)nn1-c1ccsc1)CO2 [Compound 166, (8-Aminomethyl-7-methoxy-1-thiophen-3-yl-1,4-dihydro-chromeno[4,3-c]pyrazol-3-yl)-(3,3-dimethyl-morpholin-4-yl)-methanone]	1000 to 5000
COc1cc2c(cc1-c1ccn(C)n1)-c1c(c(C(=O)N3CCNCC34CC4)nn1-c1ccsc1)CO2 [Compound 171, (4,7-Diaza-spiro[2.5]oct-4-yl)-[7-methoxy-8-(1-methyl-1H-pyrazol-3-yl)-1-thiophen-3-yl-1,4-dihydro-chromeno[4,3-c]pyrazol-3-yl]-methanone]	100 to 1000
COc1cc2c(cc1-c1ccn(C)n1)-c1c(c(C(=O)N[C@H]3CC[C@@H](O)C3)nn1-c1ccsc1)CO2 [Compound 172, 7-Methoxy-8-(1-methyl-1H-pyrazol-3-yl)-1-thiophen-3-yl-1,4-dihydro-chromeno[4,3-c]pyrazole-3-carboxylic acid ((1S,3R)-3-hydroxy-cyclopentyl)-amide]	> 5000
COc1cc2c(cc1-c1ccn(C)c1)-c1c(c(C(=O)N[C@H]3CC[C@@H](O)C3)nn1-c1ccsc1)CO2 [Compound 173, 7-Methoxy-8-(1-methyl-1H-pyrrol-3-yl)-1-thiophen-3-yl-1,4-dihydro-chromeno[4,3-c]pyrazole-3-carboxylic acid ((1S,3R)-3-hydroxy-cyclopentyl)-amide]	> 5000
COc1cc2c(cc1-c1ccn(C)n1)-c1c(c(C(=O)N3CCCC34COC4)nn1-c1ccsc1)CO2 [Compound 174, [7-Methoxy-8-(1-methyl-1H-pyrazol-3-yl)-1-thiophen-3-yl-1,4-dihydro-chromeno[4,3-c]pyrazol-3-yl]-(2-oxa-5-aza-spiro[3.4]oct-5-yl)-methanone]	100 to 1000
COc1cc2c(cc1-c1ccn(C)c1)-c1c(c(C(=O)N3CCCC3(C)CO)nn1-c1ccsc1)CO2 (stereo not drawn) [Compound 176, (2-Hydroxymethyl-2-methyl-pyrrolidin-1-yl)-[7-methoxy-8-(1-methyl-1H-pyrrol-3-yl)-1-thiophen-3-yl-1,4-dihydro-chromeno[4,3-c]pyrazol-3-yl]-methanone]	< 100
[2H]C([2H])([2H])O[C@@H]1CC[C@H](N(C(=O)c2nn(-c3ccsc3)c3c2COc2cc(OC)c(-c4ccn(C)n4)cc2-3)C([2H])([2H])[2H])C1 [Compound 177]	1000 to 5000
[2H]C([2H])([2H])O[C@@H]1CC[C@H](N(C(=O)c2nn(-c3ccsc3)c3c2COc2cc(OC)c(-c4ccn(C)c4)cc2-3)C([2H])([2H])[2H])C1 [Compound 178]	1000 to 5000
COc1cc2c(cc1-c1ccn(C)c1)-c1c(c(C(=O)NC(C)(CO)CO)nn1-c1ccsc1)CO2 [Compound 179, 7-methoxy-8-(1-methyl-1H-pyrrol-3-yl)-1-thiophen-3-yl-1,4-dihydro-chromeno[4,3-c]pyrazole-3-carboxylic acid (2-hydroxy-1-hydroxymethyl-1-methyl-ethyl)-amide]	100 to 1000
COc1cc2c(cc1-c1ccn(C)n1)-c1c(c(C(=O)O[C@H]3CC[C@H](N)C3)nn1-c1ccsc1)CO2 [Compound 180, 7-Methoxy-8-(1-methyl-1H-pyrazol-3-yl)-1-thiophen-3-yl-1,4-dihydro-chromeno[4,3-c]pyrazole-3-carboxylic Acid (1S,3S)-3-amino-cyclopentyl Ester]	< 100
COc1cc2c(cc1-c1ccn(C)c1)-c1c(c(C(=O)O[C@H]3CC[C@H](N)C3)nn1-c1ccsc1)CO2 [Compound 181, 7-Methoxy-8-(1-methyl-1H-pyrrol-3-yl)-1-thiophen-3-yl-1,4-dihydro-chromeno[4,3-c]pyrazole-3-carboxylic Acid (1S,3S)-3-amino-cyclopentyl Ester]	< 100
[2H]C([2H])([2H])OCC1(C)CCCN1C(=O)c1nn(-c2ccsc2)c2c1COc1cc(OC)ccc1-2 (stereo not drawn) [Compound 183, (2-Methoxymethyl-2-methyl-pyrrolidin-1-yl)-(7-methoxy-1-thiophen-3-yl-1,4-dihydro-chromeno[4,3-c]pyrazol-3-yl)-methanone]	100 to 1000
COc1cc2c(cc1-c1ccn(C)n1)-c1c(c(C(=O)NC(C)(CO)CO)nn1-c1ccsc1)CO2 [Compound 185, 7-Methoxy-8-(1-methyl-1H-pyrazol-3-yl)-1-thiophen-3-yl-1,4-dihydro-chromeno[4,3-c]pyrazole-3-carboxylic Acid (2-hydroxy-1-hydroxymethyl-1-methyl-ethyl)-amide]	100 to 1000
COc1cc2c(cc1S(=O)(=O)C(C)C)-c1c(c(C(=O)NC3(CO)COC3)nn1-c1ccsc1)CO2 [Compound 187, 7-Methoxy-8-(propane-2-sulfonyl)-1-thiophen-3-yl-1,4-dihydro-chromeno[4,3-c]pyrazole-3-carboxylic Acid (3-hydroxymethyl-oxetan-3-yl)-amide]	> 5000
COc1cc2c(cc1S(=O)(=O)C(C)C)-c1c(c(C(=O)NC3(C)COC3)nn1-c1ccsc1)CO2 [Compound 188, 7-Methoxy-8-(propane-2-sulfonyl)-1-thiophen-3-yl-1,4-dihydro-chromeno[4,3-c]pyrazole-3-carboxylic Acid (3-methyl-oxetan-3-yl)-amide]	> 5000
COc1cc2c(cc1-c1cnn(CCC#N)c1)-c1c(c(C(=O)N3CCOCC3(C)C)nn1-c1ccsc1)CO2 [Compound 190, 3-{4-[3-(3,3-Dimethyl-morpholine-4-carbonyl)-7-methoxy-1-thiophen-3-yl-1,4-dihydro-chromeno[4,3-c]pyrazol-8-yl]-pyrazol-1-yl}-propionitrile]	< 100
COc1cc2c(cc1-c1cnn(C(C)C)c1)-c1c(c(C(=O)N3CCOCC3(C)C)nn1-c1ccsc1)CO2 [Compound 191, (3,3-Dimethyl-morpholin-4-yl)-[8-(1-isopropyl-1H-pyrazol-4-yl)-7-methoxy-1-thiophen-3-yl-1,4-dihydro-chromeno[4,3-c]pyrazol-3-yl]-methanone]	< 100
COc1cc2c(cc1-c1cnn(CC(C)C)c1)-c1c(c(C(=O)N3CCOCC3(C)C)nn1-c1ccsc1)CO2 [Compound 192, (3,3-Dimethyl-morpholin-4-yl)-[8-(1-isobutyl-1H-pyrazol-4-yl)-7-methoxy-1-thiophen-3-yl-1,4-dihydro-chromeno[4,3-c]pyrazol-3-yl]-methanone]	< 100
[2H]C([2H])([2H])C(C(=O)c1nn(-c2ccsc2)c2c1COc1cc(OC)c(-c3ccn(C)n3)cc1-2)C1(C)CNC1 (stereo not drawn) [Compound 193]	> 5000
COc1cc2c(cc1-c1ccn(C(C)C)n1)-c1c(c(C(=O)N3CCOCC3(C)C)nn1-c1ccsc1)CO2 [Compound 195, (3,3-Dimethyl-morpholin-4-yl)-[8-(1-isopropyl-1H-pyrazol-3-yl)-7-methoxy-1-thiophen-3-yl-1,4-dihydro-chromeno[4,3-c]pyrazol-3-yl]-methanone]	< 100
[2H]C([2H])([2H])O[C@H]1CC[C@H](N(C(=O)c2nn(-c3ccsc3)c3c2COc2cc(OC)c(-c4ccn(C)n4)cc2-3)C([2H])([2H])[2H])C1 [Compound 196]	> 5000
[2H]C([2H])([2H])O[C@H]1CC[C@H](N(C(=O)c2nn(-c3ccsc3)c3c2COc2cc(OC)c(-c4ccn(C)c4)cc2-3)C([2H])([2H])[2H])C1 [Compound 197]	1000 to 5000
[2H]C([2H])([2H])N(C(=O)c1nn(-c2ccsc2)c2c1COc1cc(OC)c(S(=O)(=O)C(C)C)cc1-2)C1(C)COC1 [Compound 199]	< 100
COc1cc2c(cc1-c1cnn(CCN(C)C)c1)-c1c(c(C(=O)N3CCOCC3(C)C)nn1-c1ccsc1)CO2 [Compound 203, {8-[1-(2-Dimethylamino-ethyl)-1H-pyrazol-4-yl]-7-methoxy-1-thiophen-3-yl-1,4-dihydro-chromeno[4,3-c]pyrazol-3-yl}-(3,3-dimethyl-morpholin-4-yl)-methanone]	100 to 1000
CCn1nc(C)c(-c2cc3c(cc2OC)OCc2c(C(=O)N4CCOCC4(C)C)nn(-c4ccsc4)c2-3)c1C [Compound 204, (3,3-Dimethyl-morpholin-4-yl)-[8-(1-ethyl-3,5-dimethyl-1H-pyrazol-4-yl)-7-methoxy-1-thiophen-3-yl-1,4-dihydro-chromeno[4,3-c]pyrazol-3-yl]-methanone]	< 100
